Measured values published in patent publication US10188615B2, “Alkoxy compounds for disease treatment” (Acucela Inc., priority 2007, dated 2019).

Legend:
isomerase = isomerase (Mus musculus (Mouse), UniProt Q91ZQ5); assay: In vivo murine isomerase assay (recovery of 11-cis-retinal after photobleaching); design: species or system mice; settings: read-out: % Inhibition 1 mg/kg, 4 h
Experimental: The capability of compounds described herein to inhibit isomerase was determined by an in vivo murine isomerase assay. Brief exposure of the eye to intense light (“photobleaching” of the visual pigment or simply “bleaching”) is known to photo-isomerize almost all 11-cis-retinal in the retina. The recovery of 11-cis-retinal after bleaching can be used to estimate the activity of isomerase in vivo. Delayed recovery, as represented by lower 11-cis-retinal oxime levels, indicates inhibition of isomerization reaction.
The mice were allowed to recover 2 hours in the dark. The animals were then sacrificed by carbon dioxide inhalation. Retinoids were extracted from the eye and the regeneration of 11-cis-retinal was assessed at various time intervals.
After the mice were sacrificed, the eyes were immediately removed and placed in liquid nitrogen for storage.
The eyes were placed in 500 μL of bis-tris propane buffer (10 mM, pH ˜7.3) and 20 µL of 0.8M hydroxile amine (pH-7.3). The eyes were cut up into small pieces with small iris scissors and then thoroughly homogenized at 30000 rpm with a mechanical homogenizer (Polytron PT 1300 D) in the tube until no visible tissue remained. 500 μL of methanol and 500 μL of heptane were added to each tube. The tubes were attached to a vortexer so that the contents were mixed thoroughly for 15 minutes in room temperature. The organic phase was separated from the aqueous phase by centrifugation for 10 min at 13K rpm, 4° C. 240 μL of the solution from the top layer (organic phase) was removed and transferred to clean 300 μl glass inserts in HPLC vials using glass pipette and the vials were crimped shut tightly.
Loading volume for each sample is 100 μl; detection wavelength is 360 nm. The area under the curve for 11-cis retinal oxime was calculated by Agilent Chemstation software and was recorded manually. Data processing was performed using Prizm software.
Positive control mice (no compound administered) were sacrificed fully dark-adapted and the eye retinoids analyzed. Light (bleached) control mice (no compound administered) were sacrificed and retinoids isolated and analyzed immediately after light treatment.
Mice were sacrificed 2 hours after bleaching, eyes were enucleated, and retinoid content was analyzed by HPLC.
Recovery control mice (vehicle-only treated) were light-treated and left to recover for 2 hours in the dark before sacrifice and analysis. Light control mice (vehicle only treated) were sacrificed for analysis immediately after photo-bleaching.

visual cycle isomerase = visual cycle isomerase (Bos taurus (Bovine), UniProt Q28175); assay: Bovine in vitro isomerase inhibition assay (RPE microsome membranes); settings: Bovine in vitro Inhibition data; inhibition of 11-cis retinol formation; bovine RPE microsomes, 20 μM all-trans retinol, 37° C., 30 minutes; given as ranges
Experimental: The capability of compounds disclosed herein to inhibit the activity of a visual cycle isomerase was determined.
All tests were performed in duplicate.

[1] = target: recombinant human RPE65 and LRAT (Homo sapiens (Human), UniProt Q16518); assay: Human in vitro isomerase inhibition assay; type: biochemical; settings: Human in vitro Inhibition data; inhibition of 11-cis-retinol formation; HEK293 homogenate, all-trans-retinol about 20 μM, 37° C., one hour; given as ranges
Experimental: The concentration dependent effect of the compounds disclosed herein on the retinol isomerization reaction was also evaluated with a recombinant human enzyme system. […] A homogenate of HEK293 cell clone expressing recombinant human RPE65 and LRAT were the source of the visual enzymes, and exogenous all-trans-retinol (about 20 μM) was used as the substrate. Recombinant human CRALBP (about 80 ug/mL) was added to enhance the formation of 11 cis-retinal. The 200 μL Bis-Tris Phosphate buffer (10 mM, pH 7.2) based reaction mixture also contains 0.5% BSA, and 1 mM NaPPi. In this assay, the reaction was carried out at 37° C. in duplicates for one hour and was terminated by addition of 300 μL methanol. The amount of reaction product, 11-cis-retinol, was measured by HPLC analysis following Heptane extraction of the reaction mixture. […] The ability of the numerous compounds disclosed herein to inhibit isomerization reaction is quantified and the respective IC50 value is determined.

Chain of visual cycle isomerase (Q28175 2-533): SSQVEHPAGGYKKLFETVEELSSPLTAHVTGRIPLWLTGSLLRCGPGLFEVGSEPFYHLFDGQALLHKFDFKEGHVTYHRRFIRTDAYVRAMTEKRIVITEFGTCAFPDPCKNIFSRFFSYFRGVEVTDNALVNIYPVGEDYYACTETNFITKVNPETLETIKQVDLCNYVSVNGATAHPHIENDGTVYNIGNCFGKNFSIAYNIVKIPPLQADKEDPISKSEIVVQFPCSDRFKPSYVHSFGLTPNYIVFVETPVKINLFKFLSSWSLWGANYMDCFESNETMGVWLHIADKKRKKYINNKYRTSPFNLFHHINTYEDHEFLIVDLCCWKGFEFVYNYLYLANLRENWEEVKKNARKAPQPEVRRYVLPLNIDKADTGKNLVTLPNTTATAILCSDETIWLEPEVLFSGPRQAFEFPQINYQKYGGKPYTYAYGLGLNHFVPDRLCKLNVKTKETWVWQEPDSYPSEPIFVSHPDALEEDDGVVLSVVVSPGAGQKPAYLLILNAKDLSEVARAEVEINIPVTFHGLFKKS
Chain of recombinant human RPE65 and LRAT (Q16518 2-533): as the sequence (Q28175 2-533) above, with S2I, I135V, V154I, I299L, H320N, E321G, G426C counted along it
Chain of isomerase (Q91ZQ5 whole entry): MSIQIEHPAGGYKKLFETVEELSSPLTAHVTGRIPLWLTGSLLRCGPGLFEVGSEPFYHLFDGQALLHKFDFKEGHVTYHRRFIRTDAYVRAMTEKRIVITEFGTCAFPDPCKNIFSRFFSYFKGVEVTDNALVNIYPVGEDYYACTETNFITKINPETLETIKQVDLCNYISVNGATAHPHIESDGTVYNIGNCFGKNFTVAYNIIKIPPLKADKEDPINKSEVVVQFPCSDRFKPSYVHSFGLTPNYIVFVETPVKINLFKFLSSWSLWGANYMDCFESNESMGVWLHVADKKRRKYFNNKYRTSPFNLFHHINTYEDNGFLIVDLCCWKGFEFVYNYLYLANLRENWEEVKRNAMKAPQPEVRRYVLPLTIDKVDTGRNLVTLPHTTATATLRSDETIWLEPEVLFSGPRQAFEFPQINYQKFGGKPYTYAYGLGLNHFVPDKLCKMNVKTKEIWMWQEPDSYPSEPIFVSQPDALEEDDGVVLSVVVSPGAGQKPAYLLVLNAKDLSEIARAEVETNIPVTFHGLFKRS

SMILES | inhibition at 1 mg/kg (isomerase) [%] | IC50 (visual cycle isomerase) [nM] | IC50 [1] [nM]
NCCC(O)c1cccc(OCC2(O)CCCCC2)c1 (centres unmarked) [Example 12, 1-((3-(3-Amino-1-Hydroxypropyl)Phenoxy)Methyl)Cyclohexanol] | 59 | ≤ 1000 | 
NCCC(O)c1cccc(OCC2(O)CCCCCC2)c1 (centres unmarked) [Example 13, 1-((3-(3-Amino-1-Hydroxypropyl)Phenoxy)Methyl)Cycloheptanol] | 41 | ≤ 1000 | ≤ 10
NCCCc1cccc(OCC2CCCCCC2)c1 [Example 14, 3-(3-(Cycloheptylmethoxy)phenyl)propan-1-amine] | 89 | ≤ 1000 | 
NCCC(O)c1cccc(OCC2CCCCCC2)c1 (centres unmarked) [Example 15, 3-Amino-1-(3-(cycloheptylmethoxy)phenyl)propan-1-ol] | 91 | ≤ 1000 | ≤ 10
NCCC(=O)c1cccc(OCC2CCCCCC2)c1 [Example 16, 3-amino-1-(3-(cycloheptylmethoxy)phenyl)propan-1-one] | 60 | ≤ 1000 | 
CCCC(CCC)COc1cccc(C(O)CCN)c1 (centres unmarked) [Example 17, 3-Amino-1-(3-(2-propylpentyloxy)phenyl)propan-1-ol] | 96 | ≤ 1000 | ≤ 10
CCCC(O)(CCC)COc1cccc(C(O)CCN)c1 (centres unmarked) [Example 20, 4-((3-(3-Amino-1-hydroxypropyl)phenoxy)methyl)heptan-4-ol] | 98 | ≤ 1000 | 
